Residues, ends and D or L forms follow the SMILES beside them.
Assays:
[1] = test system: pepsin (artificial gastric juice); experiment: In vitro stability against digestive enzymes, artificial gastric juice; format: in vitro ADME; settings: for Ratio of recovery: after pepsin in 0.1 N HCl, 37° C., 4 hr, HPLC peak area, before treatment = 100
Description: (§1) In vitro stability test against digestive enzymes was conducted on the peptide (VVYP) having the amino acid sequence shown in SEQ ID NO: 1 synthesized in Example 2 and peptides Val-Tyr-Pro (VYP) and Val-Thr-Leu (VTL) synthesized in the same manner as described in Example 2.
(§2) Briefly, to 127.5 ml of 0.1 N HCl solution of the above VVYP, VYP or VTL, 22.5 ml of 0.67 mg/ml pepsin (artificial gastric juice) dissolved in 0.1 N HCl was added and reacted at 37° C. for 4 hr. Thereafter, 75 ml of 0.53 mg/ml pancreatin (artificial pancreatic juice) dissolved in […] of 0.5 N borate buffer (pH 8.0) was added thereto and reacted at 37° C. for 2 hr. Samples before digestion with artificial gastric juice, after digestion with artificial gastric juice, and after digestion with artificial pancreatic juice were analyzed under the following conditions.
(§3) Equipment used: HPLC (Waters; LC Modulel)
(§4) Column: SuperPac Pep-S, 5 μm (PHARMACIA K.K.)
(§5) Mobile phase A: 0.1% trifluoroacetic acid B: Acetonitrile-water (50:50, containing 0.1% tri-fluoroacetic acid)
(§6) Flow rate: 0.8 ml/min (VYP, VTL), 0.4 ml/min (VVYP)
(§7) Detection wavelength: 220 nm
(§8) Temperature: room temperature
(§9) Amount applied: 20 μl of 50-fold dilution

[2] = test system: serum TG levels; experiment: Serum TG elevation inhibiting action, peptide given 1 hr after olive oil; format: in vivo, male ICR mice; settings: for ID50 (dose which inhibits in vivo 50% of serum TG elevations): olive oil 18 g/kg oral, peptide oral 1 hr later, serum TG another 1 hr later; for Specific Activity (ratio to mg protein): relative to globin proteolysate (GD) = 1, Table 3
Description: Subsequently, serum TG elevation inhibiting action was examined as described below on the peptide (VVYP) having the amino acid sequence shown in SEQ ID NO: 1 synthesized in Example 2, peptides Val-Tyr-Pro (vYP) and Val-Thr-Leu (VTL) synthesized in the same manner as described in Example 2, and the globin proteolysate (GD) obtained in the Reference Example.
Olive oil (18 g/kg body weight) was administered orally to male ICR mice (6 week old, body weight: 25-28 g) which fasted for an overnight. One hour thereafter, an aqueous solution of the above peptide (0.3 ml/mouse) was administered orally. […] A dose-response curve was obtained from the dose of the peptide and inhibition rate of TG, and the 50% inhibition dose ID50 was calculated. Then, the activity of individual peptides was compared with each other.

[3] = test system: male and female ICR mice; experiment: Toxicological study, oral administration; format: in vivo; settings: 10 g/kg body weight or more (maximum possible dose)
Description: The peptide (VVYP) having the amino acid sequence shown in SEQ ID NO: 1 synthesized in Example 2 was administered orally to male and female ICR mice in an amount of 10 g/kg body weight or more (maximum possible dose).

[4] = test system: pancreatin (artificial pancreatic juice); experiment: In vitro stability against digestive enzymes, artificial gastric juice then artificial pancreatic juice; format: in vitro ADME; settings: for HPLC peak of the peptide after digestion: after digestion with artificial gastric and pancreatic juices; for Ratio of recovery: after pepsin 37° C. 4 hr, then pancreatin pH 8.0, 37° C., 2 hr, HPLC peak area, before treatment = 100
Description: as §1, §2, §3, §4, §5, §6, §7, §8, §9

SMILES	HPLC peak of the peptide after digestion ([1]; after digestion with artificial gastric juice)	ID50 (dose which inhibits in vivo 50% of serum TG elevations) [2]	Specific Activity (ratio to mg protein) [2]	Death [3]	Ratio of recovery [1]	HPLC peak of the peptide after digestion [4]	Ratio of recovery [4]
CC(C)C[C@H](NC(=O)[C@@H](NC(=O)[C@@H](N)C(C)C)[C@@H](C)O)C(=O)O [VTL, Val-Thr-Leu] (H-Val-Thr-Leu-OH)	disappeared	0.05 mg protein/mouse	448	–	–	–	–
CC(C)[C@H](N)C(=O)N[C@H](C(=O)N[C@@H](Cc1ccc(O)cc1)C(=O)N1CCC[C@H]1C(=O)O)C(C)C [VVYP, Val-Val-Tyr-Pro] (H-VVYP-OH)	–	–	6500	no death occurred	108	remained	101
CC(C)[C@H](N)C(=O)N[C@@H](Cc1ccc(O)cc1)C(=O)N1CCC[C@H]1C(=O)O [VYP, Val-Tyr-Pro] (H-Val-Tyr-Pro-OH)	–	0.02 mg protein/mouse	1130	–	108	remained	109

— patent US5958885A, “Peptide and formulations thereof inhibiting elevations of triglyceride levels in blood” (Hankyu Kyoei Bussan Co., Ltd., priority 1996, dated 1999)
